In patent US20040091528A1, “Soluble drug extended release system” (Yamanouchi Pharma Technologies, Inc., priority 2002, published 2004):
Counter-ions that a name gives are not always drawn. Like-named read-outs stand apart in the source and are kept apart here.

Experiments:
[1] = In vitro dissolution (drug release) from 400 mg matrix tablets, USP apparatus II, SGF or SIF; format: physicochemical; set-up: T50 (time during which 50% of drug has been released from matrix): unit not given here; details: for T50 in SGF: modified SGF; for T50 (time during which 50% of drug has been released from matrix): 10 wt. % drug, 400 mg PAA/PEO (1:1.5) tablet, modified SIF; for T50 values in SIF, PAA/PEO: PAA/PEO (1:1.5) formulation, 10% of active; for T10 / T50: 1:1.5 PAA/PEO excipient mixture; for T50 in SIF / T50 values in SIF, PAA/PEO / T10 / T50: SIF; for Comments (interaction with PAA): Table 2
Procedure: Several different formulations with different drugs were manufactured. Drugs were manually mixed with the excipients in a mortar and compressed into 400 mg tablets using Carver press or Oil press with 1000 lb applied force. Flat face 11 mm round tooling was used.
In vitro drug release was measured by in vitro dissolution experiments. […] Drug release was evaluated with either Simulated Gastric Fluid (SGF), pH=1.2 or Simulated Intestinal Fluid (SIF), pH=7.5, both prepared according to USP without enzyme added. Tablet sinkers were applied in all experiments. At predetermined time intervals, a sample was withdrawn from the vessel and assayed using a UV-VIS spectrophotometer at a wavelength of 240 nm.
The release behavior of a large group of basic highly soluble drugs (10 wt. % of drug ) from a directly compressed matrix tablet using 1:1.5 polyacrylic acid/polyethylene oxide (PAA/PEO) mix as excipient was studied under modified Simulated Intestinal Fluid (SIF) conditions.

[2] = cited from earlier work
[3] = cited from earlier work; for Log P: Table 1; for LogP: Table 4
[4] = In vitro dissolution (drug release) from 400 mg matrix tablets, USP apparatus II, SGF or SIF; format: physicochemical; details: for T50 values in SIF, PAA/Car: PAA/Carrageenan (1:1) formulation, 25% of active; for T50: negatively charged drugs from negatively charged PAA/PEO matrix
[5] = Table 1, model drug characteristics
[6] = Table 2, positively charged drugs

Row | Compound | Solubility [2, 5] | Log P [3] | T50 (time during which 50% of drug has been released from matrix) [1] | T50 values in SIF, PAA/PEO [1] | T50 values in SIF, PAA/Car [4] | also measured
1 | C[N+](C)(C)CC(=O)O [Betaine Hydrochloride] |  |  |  |  |  | T50 in SIF ([1]; 1:1.5 PAA/PEO): 22 h; T50 in SGF ([1]; 1:1.5 PAA/PEO): 4 h
2 | CCCCOc1cc(C(=O)OCCN(CC)CC)ccc1N [Benoxinate HCl] | 1000 mg/mL | 4.0 | 22 | 22 | 23 | LogP [3]: 5.2
3 | CCOc1ccccc1OCCN[C@H](C)Cc1ccc(OC)c(S(N)(=O)=O)c1 [Tamsulosin HCl] |  |  |  | 26 | 25 | LogP [3]: 2.24
4 | CN(C)CCCN1c2ccccc2Sc2ccc(Cl)cc21 [Chlorpromazine HCl] | 400 mg/mL |  | 56 |  |  | 
5 | CC1OC2(CS1)CN1CCC2CC1 (centres unmarked) [Cevimeline HCl] | 766 mg/mL | 1.1 | 4.5 |  |  | 
6 | Diphenhydramine Citrate |  |  |  |  |  | T50 in SIF ([1]; 1:1.5 PAA/PEO): 25 h; T50 in SGF ([1]; 1:1.5 PAA/PEO): 12 h
7 | CN(C)CCCN1c2ccccc2CCc2ccccc21 [Imipramine HCl] | 500 mg/mL |  | 58 |  |  | 
8 | CN(C)CCOC(C)(c1ccccc1)c1ccccn1 (centres unmarked) [Doxylamine Succinate] | 1000 mg/mL | 2.5 | 23 | 23 | 22 | LogP [3]: 2.5
9 | CN[C@@H](C)[C@@H](O)c1ccccc1 [Pseudoephedrine HCl] |  | 1.0 | 4 |  |  | 
10 | Cc1ncc(C[n+]2csc(CCO)c2C)c(N)n1 [Thiamine HCl] |  |  |  | 7.5 | 7.5 | Solubility [2, 6]: 1000 mg/mL; T10 [1]: 1 h; T50 [1]: 7.5 h; Release behaviour (in words) ([1]; permanently positively charged molecules, 1:1.5 PAA/PEO): slightly fast release
11 | CO[C@@]1(NC(=O)CSCC#N)C(=O)N2C(C(=O)[O-])=C(CSc3nnnn3C)CS[C@@H]21.[Na+] [sodium cefmatazole] |  |  |  |  |  | T50 [4]: about 5 hours
12 | CC(C)(C)CC(C)(C)c1ccc(OCCOCC[N+](C)(C)Cc2ccccc2)cc1 [Benzethonium Chloride] |  |  |  |  |  | T10 [1]: 25 h; Comments (interaction with PAA) [1]: Forms insoluble
13 | CN(C)CCOC(c1ccccc1)c1ccccc1 [Diphenhydramine HCl] |  |  | 15 | 15 | 8 | 
14 | CNC(=C[N+](=O)[O-])NCCSCc1ccc(CN(C)C)o1 [Ranitidine HCl] | ˜200 mg/ml | 1.3 | 11 | 11 | 15 | LogP [3]: 1.3
15 | COc1ccc([C@@H]2Sc3ccccc3N(CCN(C)C)C(=O)[C@@H]2OC(C)=O)cc1 [Diltiazem HCl] | 800 mg/mL | 3.6 | 18 | 18 | 21 | LogP [3]: 3.6; T50 in SIF ([1]; 1:1.5 PAA/PEO): 18 h; T50 in SGF ([1]; 1:1.5 PAA/PEO): 8 h
16 | Cc1ncc(CO)c(CO)c1O.Cl [Pyridoxine HCl] |  | −1.9 | 4 |  |  | 
17 | COc1cccc(C2(O)CCCCC2CN(C)C)c1 (centres unmarked) [Tramadol HCl] | >1000 mg/mL | 2.5 | 31 |  |  | T50 in SIF ([1]; 1:1.5 PAA/PEO): 31 h; T50 in SGF ([1]; 1:1.5 PAA/PEO): 8 h
18 | CNS(=O)(=O)CCc1ccc2[nH]cc(C3CCN(C)CC3)c2c1 [Naratriptan HCl] |  |  |  | 22 | 25 | LogP [3]: 1.8
19 | C[N+](C)(C)CC(=O)O [Betaine] |  |  |  |  |  | Solubility [2, 6]: 650 mg/mL; T10 [1]: 6 h; T50 [1]: 22 h
20 | CC(C[N+](C)(C)C)OC(N)=O (centres unmarked) [Bethanechol Chloride] |  |  |  |  |  | T10 [1]: 10 h; T50 [1]: 55 h; T50 in SIF ([1]; 1:1.5 PAA/PEO): 55 h; T50 in SGF ([1]; 1:1.5 PAA/PEO): 24 h; Comments (interaction with PAA) [1]: Forms insoluble
21 | Amitriptuline HCl |  |  | 57 |  |  | 
22 | Cc1nnc(SCC2=C(C(=O)[O-])N3C(=O)[C@@H](NC(=O)Cn4cnnn4)[C@H]3SC2)s1.[Na+] [sodium cefazoline] |  |  |  |  |  | T50 [4]: about 5 hours
